According to patent US12517113B2, “Multikinase degraders” (University of Houston System, priority 2019, dated 2026):

Experiments:
CHK1 kinase = molecular target: T1, CHK1 kinase (Homo sapiens, UniProt O14757); experiment: CHK1 degradation in A375 melanoma cells, western blotting; format: cell-based; details: western blot; for degradation of CHK1 kinase: 18 h treatment, 37° C., FIG. 6
T1 construct: endogenous in cells; host or cells: A375 human malignant melanoma cells (ATCC)
T1 sequence (O14757 1-476): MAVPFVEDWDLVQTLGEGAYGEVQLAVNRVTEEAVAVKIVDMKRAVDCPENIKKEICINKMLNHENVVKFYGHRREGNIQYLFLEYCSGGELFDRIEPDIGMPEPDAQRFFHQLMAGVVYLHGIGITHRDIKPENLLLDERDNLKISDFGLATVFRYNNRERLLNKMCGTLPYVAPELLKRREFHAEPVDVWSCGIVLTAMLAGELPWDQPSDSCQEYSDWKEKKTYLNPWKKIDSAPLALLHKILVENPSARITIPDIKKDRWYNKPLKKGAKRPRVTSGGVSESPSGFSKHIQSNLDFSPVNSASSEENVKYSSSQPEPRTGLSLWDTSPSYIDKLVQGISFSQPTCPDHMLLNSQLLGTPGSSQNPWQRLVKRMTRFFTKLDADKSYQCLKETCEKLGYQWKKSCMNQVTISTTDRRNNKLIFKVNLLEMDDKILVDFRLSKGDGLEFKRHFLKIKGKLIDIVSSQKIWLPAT
Experimental: (§1) Tests were performed to determine the activity of the exemplary PROTACs PEG1-thalidomide, PEG2-thalidomide, PEG3-thalidomide, and PEG4-thalidomide having the structures shown above. Human A375 malignant melanoma cells were obtained from American Type Culture Collection ATCC) and cultured according to ATCC protocols. Subsequently cells were treated with the PROTACs for 18 h at 37° C. and 5% CO2. Subsequently cells were harvested and lysed using commercially available lysis buffer (Biorad) containing Roche cOmplete™ Protease Inhibitor Cocktail tablets. The amount of degraded proteins were probed with specific antibodies purchased from Cell Signaling in western blotting. α-Tubulin was used as the loading control.
In further tests, human A375 malignant melanoma cells were treated with PEG2-thalidomide at different concentrations for 12 h at 37° C. and 5% CO2. Proteins CHK1, GAPDH, and α-Tubulin were probed by specific antibodies. GAPDH and α-Tubulin were used as the loading control. […] Cell culture conditions, lysis and western blotting were performed similar to above.

MEK kinase = experiment: MEK degradation in A375 melanoma cells, western blotting; format: cell-based, human; details: 12 h, western blot, FIG. 8
Experimental: as §1
(§2) In further tests, the effect of PEG2-Thalidomide degrader […] was tested. Human A375 malignant melanoma cells were treated with PEG2-thalidomide for 12 h at 37° C. and 5% CO2. Proteins MEK and ERK were probed by specific antibodies. The procedure used was similar to the one outlined above.

[1] = system: A375 malignant melanoma cells; experiment: A375 cell viability, CellTiter Glo assay; format: cell-based; details: Homo sapiens, A-375, 48 h treatment, 384 well plates, FIG. 10
Experimental: In further tests, human A375 malignant melanoma cells were treated with PEG2-thalidomide for 48 h at 37° C. and 5% CO2. Subsequently, the viability of A375 malignant melanoma cells was checked using CellTiter Glo assay (Promega) in 384 well plates, and the luminescence signal was quantified using Biotek H1 plate reader.

ERK kinase = experiment: ERK degradation in A375 melanoma cells, western blotting; format: cell-based, human; details: 12 h, western blot, FIG. 8
Experimental: as §1, §2

Compound | degradation of CHK1 kinase (CHK1 kinase) | dose response of degradation of CHK1 (CHK1 kinase; different concentrations, 12 h, FIG. 7) | degradation of MEK kinase (MEK kinase) | IC50 [1] [nM] | degradation of ERK kinase (ERK kinase)
N#CCc1ccc(Nc2nc(Nc3cc(C4CC4)[nH]n3)cc(C(=O)NCc3cn(CCOCCOCCOCCOCCNC(=O)COc4cccc5c4C(=O)N(C4CCC(=O)NC4=O)C5=O)nn3)n2)cc1 (stereo not drawn) [PEG4-thalidomide] | degrade the protein CHK1 |  |  |  | 
N#CCc1ccc(Nc2nc(Nc3cc(C4CC4)[nH]n3)cc(C(=O)NCc3cn(CCOCCOCCNC(=O)COc4cccc5c4C(=O)N(C4CCC(=O)NC4=O)C5=O)nn3)n2)cc1 (stereo not drawn) [PEG2-thalidomide] | degrade the protein CHK1 | demonstrating its degradation | degradation of MEK | 768 | not ERK
